Results taken from article PMC7531004, “Discovery of gramicidin A analogues with altered activities by multidimensional screening of a one-bead-one-compound library” (Nature Communications, 2020).
Where a SMILES comes first, the peptide text is derived from it. [ ]: non-standard residue; d: D form. The star is where a group is joined. NHCH2CH2OH = OCCN*; For = O=C*

How the values were obtained:
[1] = H+/Na+ transport assay of bead-derived peptides (one-point); format: biochemical; parameters: key: relative activity; mean of two control wells = 1.00; conditions: bead-derived peptide solution, EYPC/EYPG LUVs;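 note: relative to parent gramicidin A activity set to 1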
Summary of the method: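 One-point screen: peptide + pyranine-loaded LUVs, 30 min RT with vortexing, 96-well. Read-out is fluorescence intensity scaled as 100 × (Ix – I0)/(Imax – I0). Imax from Triton X-100, I0 from untreated vesicles, and the mean of the two control wells is set to 1.00.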

[2] = system: P388 mouse leukemia cells; conditions: 92 h
Summary of the method: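 P388 cells at 1 × 10^4 cells/mL (final) were exposed to library peptides (stocks diluted 250-fold in RPMI1640/10% FBS) for 92 h at 37 °C, 5% CO2. Viable cells were counted by WST-1/1-methoxy PMS (4 h), absorbance 415 nm, and expressed as cell viability (%).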

[3] = system: Streptococcus pyogenes SSI-9; experiment: Antibacterial activity assay of bead-derived peptides (three concentrations); format: cell-based; parameters: key: +++: inhibition by the 640-fold diluted peptide solution; ++: inhibition by the 160-fold diluted solution; +: inhibition by the 40-fold diluted solution; -: no inhibition; conditions: S. pyogenes, bead-derived peptide solution, three concentrations
Summary of the method: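 Library peptide stock applied undiluted, 4-fold and 16-fold diluted in DMSO to S. pyogenes SSI-9 (2 × 10^5 CFU) in cation-adjusted Mueller Hinton broth with 5% laked horse blood. After 18 h at 37 °C, growth judged by visible cell precipitation.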

SMILES	H+/Na+ transport activity normalized against the value of 1 (1.00) [1]	cell viability/% [2] [%]	antibacterial activity [3]
CC(C)C[C@@H](NC(=O)[C@H](Cc1c[nH]c2ccccc12)NC(=O)[C@H](NC(=O)[C@H](Cc1c[nH]c2ccccc12)NC(=O)[C@H](NC(=O)[C@H](Cc1c[nH]c2ccccc12)NC(=O)[C@H](NC(=O)[C@@H](NC(=O)[C@H](NC(=O)[C@H](C)NC(=O)[C@H](NC(=O)[C@H](C)NC(=O)CNC(=O)[C@@H](NC=O)C(C)C)C(C)C)[C@H](C)O)C(C)C)C(C)C)C(C)C)C(C)C)C(=O)N[C@@H](Cc1c[nH]c2ccccc12)C(=O)NCCO [compound 5164] (For-VGA[dV]A[dT]V[dV]W[dV]W[dV]W[dL]W-NHCH2CH2OH)	1.19	100.0	-
CC(C)C[C@@H](NC(=O)[C@H](C)NC(=O)CNC(=O)[C@@H](NC=O)C(C)C)C(=O)N[C@@H](C)C(=O)N[C@@H](C(=O)N[C@H](C(=O)N[C@@H](C(=O)N[C@@H](Cc1c[nH]c2ccccc12)C(=O)N[C@@H](C(=O)N[C@@H](Cc1c[nH]c2ccccc12)C(=O)N[C@H](CC(C)C)C(=O)N[C@@H](Cc1c[nH]c2ccccc12)C(=O)N[C@@H](C(=O)N[C@@H](Cc1c[nH]c2ccccc12)C(=O)NCCO)C(C)C)C(C)C)[C@H](C)O)C(C)C)C(C)C [compound 5167] (For-VGA[dL]A[dV]V[dT]W[dV]W[dL]W[dV]W-NHCH2CH2OH)	1.33	100.0	-
CC(C)C[C@@H](NC(=O)[C@H](Cc1c[nH]c2ccccc12)NC(=O)[C@H](NC(=O)[C@@H](NC(=O)[C@H](NC(=O)[C@H](C)NC(=O)[C@H](NC(=O)[C@H](C)NC(=O)CNC(=O)[C@@H](NC=O)C(C)C)C(C)C)C(C)C)C(C)C)C(C)C)C(=O)N[C@@H](Cc1c[nH]c2ccccc12)C(=O)N[C@H](CC(C)C)C(=O)N[C@@H](Cc1c[nH]c2ccccc12)C(=O)N[C@@H](C(=O)N[C@@H](Cc1c[nH]c2ccccc12)C(=O)NCCO)[C@H](C)O [compound 5172] (For-VGA[dV]A[dV]V[dV]W[dL]W[dL]W[dT]W-NHCH2CH2OH)	1.27	100.0	++
CC(C)C[C@@H](NC(=O)[C@H](C)NC(=O)CNC(=O)[C@@H](NC=O)C(C)C)C(=O)N[C@@H](C)C(=O)N[C@H](CC(C)C)C(=O)N[C@H](C(=O)N[C@H](CC(C)C)C(=O)N[C@@H](Cc1c[nH]c2ccccc12)C(=O)N[C@@H](C(=O)N[C@@H](Cc1c[nH]c2ccccc12)C(=O)N[C@@H](C(=O)N[C@@H](Cc1c[nH]c2ccccc12)C(=O)N[C@@H](C(=O)N[C@@H](Cc1c[nH]c2ccccc12)C(=O)NCCO)C(C)C)[C@H](C)O)C(C)C)C(C)C [compound 5178] (For-VGA[dL]A[dL]V[dL]W[dV]W[dT]W[dV]W-NHCH2CH2OH)	1.22	100.0	-
CNC(=O)C[C@@H](NC(=O)[C@@H](NC(=O)[C@H](NC(=O)[C@H](C)NC(=O)[C@@H](CC(C)C)NC(=O)[C@H](C)NC(=O)CNC(=O)[C@@H](NC=O)C(C)C)C(C)C)C(C)C)C(=O)N[C@@H](Cc1c[nH]c2ccccc12)C(=O)N[C@@H](C(=O)N[C@@H](Cc1c[nH]c2ccccc12)C(=O)N[C@H](CC(C)C)C(=O)N[C@@H](Cc1c[nH]c2ccccc12)C(=O)N[C@@H](C(=O)N[C@@H](Cc1c[nH]c2ccccc12)C(=O)NCCO)C(C)C)C(C)C [compound 5185] (For-VGA[dL]A[dV]V[dD](NHMe)W[dV]W[dL]W[dV]W-NHCH2CH2OH)	1.40	100.0	-
CC(C)[C@H](NC=O)C(=O)NCC(=O)N[C@@H](C)C(=O)N[C@@H](C(=O)N[C@@H](C)C(=O)N[C@@H](C(=O)N[C@H](C(=O)N[C@@H](C(=O)N[C@@H](Cc1c[nH]c2ccccc12)C(=O)N[C@@H](C(=O)N[C@@H](Cc1c[nH]c2ccccc12)C(=O)N[C@@H](C(=O)N[C@@H](Cc1c[nH]c2ccccc12)C(=O)N[C@@H](C(=O)N[C@@H](Cc1c[nH]c2ccccc12)C(=O)NCCO)C(C)C)C(C)C)[C@H](C)O)C(C)C)C(C)C)C(C)C)C(C)C [compound 5205] (For-VGA[dV]A[dV]V[dV]W[dT]W[dV]W[dV]W-NHCH2CH2OH)	1.22	100.0	-
CC(C)C[C@@H](NC(=O)[C@H](C)NC(=O)[C@H](NC(=O)[C@H](C)NC(=O)CNC(=O)[C@@H](NC=O)C(C)C)[C@H](C)O)C(=O)N[C@H](C(=O)N[C@H](CC(C)C)C(=O)N[C@@H](Cc1c[nH]c2ccccc12)C(=O)N[C@@H](C(=O)N[C@@H](Cc1c[nH]c2ccccc12)C(=O)N[C@H](CC(C)C)C(=O)N[C@@H](Cc1c[nH]c2ccccc12)C(=O)N[C@H](CC(C)C)C(=O)N[C@@H](Cc1c[nH]c2ccccc12)C(=O)NCCO)[C@H](C)O)C(C)C [compound 5215] (For-VGA[dT]A[dL]V[dL]W[dT]W[dL]W[dL]W-NHCH2CH2OH)	1.33	100.0	-
CC(C)C[C@@H](NC(=O)[C@H](C)NC(=O)[C@H](NC(=O)[C@H](C)NC(=O)CNC(=O)[C@@H](NC=O)C(C)C)C(C)C)C(=O)N[C@H](C(=O)N[C@@H](C(=O)N[C@@H](Cc1c[nH]c2ccccc12)C(=O)N[C@H](CC(C)C)C(=O)N[C@@H](Cc1c[nH]c2ccccc12)C(=O)N[C@@H](C(=O)N[C@@H](Cc1c[nH]c2ccccc12)C(=O)N[C@H](CC(C)C)C(=O)N[C@@H](Cc1c[nH]c2ccccc12)C(=O)NCCO)C(C)C)C(C)C)C(C)C [compound 5241] (For-VGA[dV]A[dL]V[dV]W[dL]W[dV]W[dL]W-NHCH2CH2OH)	1.39	12.2	++
CNC(=O)C[C@@H](NC(=O)[C@H](Cc1c[nH]c2ccccc12)NC(=O)[C@@H](CC(C)C)NC(=O)[C@H](Cc1c[nH]c2ccccc12)NC(=O)[C@H](NC(=O)[C@H](Cc1c[nH]c2ccccc12)NC(=O)[C@@H](CC(C)C)NC(=O)[C@@H](NC(=O)[C@H](NC(=O)[C@H](C)NC(=O)[C@@H](CC(C)C)NC(=O)[C@H](C)NC(=O)CNC(=O)[C@@H](NC=O)C(C)C)C(C)C)C(C)C)C(C)C)C(=O)N[C@@H](Cc1c[nH]c2ccccc12)C(=O)NCCO [compound 5302] (For-VGA[dL]A[dV]V[dL]W[dV]W[dL]W[dD](NHMe)W-NHCH2CH2OH)	1.37	100.0	-
CC(C)C[C@@H](NC(=O)[C@H](Cc1c[nH]c2ccccc12)NC(=O)[C@@H](CC(C)C)NC(=O)[C@@H](NC(=O)[C@H](NC(=O)[C@H](C)NC(=O)[C@H](NC(=O)[C@H](C)NC(=O)CNC(=O)[C@@H](NC=O)C(C)C)C(C)C)C(C)C)C(C)C)C(=O)N[C@@H](Cc1c[nH]c2ccccc12)C(=O)N[C@@H](C(=O)N[C@@H](Cc1c[nH]c2ccccc12)C(=O)N[C@@H](C(=O)N[C@@H](Cc1c[nH]c2ccccc12)C(=O)NCCO)C(C)C)[C@H](C)O [compound 5311] (For-VGA[dV]A[dV]V[dL]W[dL]W[dT]W[dV]W-NHCH2CH2OH)	1.15	100.0	+
